Legend:
[1] = molecular target: T1, 5-hydroxytryptamine receptor 1A (Rattus norvegicus, UniProt P19327); assay: Ability to displace [3H]-8-OH-DPAT from rat hippocampal homogenate 5-hydroxytryptamine 1A receptor; format: tissue-based, Hippocampus
T1 sequence (P19327 whole entry): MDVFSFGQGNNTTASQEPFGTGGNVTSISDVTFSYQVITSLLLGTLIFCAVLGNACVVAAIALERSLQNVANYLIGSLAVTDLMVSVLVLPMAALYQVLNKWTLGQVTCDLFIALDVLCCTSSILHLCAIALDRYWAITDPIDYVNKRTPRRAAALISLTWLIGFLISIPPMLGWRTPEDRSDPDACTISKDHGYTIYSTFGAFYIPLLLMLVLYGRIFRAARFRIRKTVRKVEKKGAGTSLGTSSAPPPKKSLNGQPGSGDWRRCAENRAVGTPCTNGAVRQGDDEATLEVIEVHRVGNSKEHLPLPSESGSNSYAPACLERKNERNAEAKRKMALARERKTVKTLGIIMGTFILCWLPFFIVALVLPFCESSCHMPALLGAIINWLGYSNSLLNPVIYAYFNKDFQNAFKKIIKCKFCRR

[2] = molecular target: T2, 5-hydroxytryptamine receptor 2A (Homo sapiens, UniProt P28223); assay: Agonist activity at cloned human 5-hydroxytryptamine 2A receptor using [125I]DOI radioligand
T2 sequence (P28223 whole entry): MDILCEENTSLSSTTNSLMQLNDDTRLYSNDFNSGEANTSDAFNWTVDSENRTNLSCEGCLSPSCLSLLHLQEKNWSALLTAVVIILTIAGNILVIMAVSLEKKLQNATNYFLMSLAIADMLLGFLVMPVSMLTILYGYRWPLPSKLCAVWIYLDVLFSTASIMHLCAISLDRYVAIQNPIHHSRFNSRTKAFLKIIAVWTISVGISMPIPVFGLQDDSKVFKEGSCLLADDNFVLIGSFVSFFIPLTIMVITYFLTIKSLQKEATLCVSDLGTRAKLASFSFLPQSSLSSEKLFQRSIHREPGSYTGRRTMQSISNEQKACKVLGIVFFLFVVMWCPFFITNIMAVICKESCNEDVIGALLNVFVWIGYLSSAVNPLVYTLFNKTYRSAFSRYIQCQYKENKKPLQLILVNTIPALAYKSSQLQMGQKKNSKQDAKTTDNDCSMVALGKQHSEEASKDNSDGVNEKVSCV

[3] = molecular target: T3, 5-hydroxytryptamine receptor 2A (Rattus norvegicus, UniProt P14842); assay: Effect on phosphoinositide hydrolysis in NIH 3T3 fibroblast 5-hydroxytryptamine 2A receptor; format: functional
T3 sequence (P14842 whole entry): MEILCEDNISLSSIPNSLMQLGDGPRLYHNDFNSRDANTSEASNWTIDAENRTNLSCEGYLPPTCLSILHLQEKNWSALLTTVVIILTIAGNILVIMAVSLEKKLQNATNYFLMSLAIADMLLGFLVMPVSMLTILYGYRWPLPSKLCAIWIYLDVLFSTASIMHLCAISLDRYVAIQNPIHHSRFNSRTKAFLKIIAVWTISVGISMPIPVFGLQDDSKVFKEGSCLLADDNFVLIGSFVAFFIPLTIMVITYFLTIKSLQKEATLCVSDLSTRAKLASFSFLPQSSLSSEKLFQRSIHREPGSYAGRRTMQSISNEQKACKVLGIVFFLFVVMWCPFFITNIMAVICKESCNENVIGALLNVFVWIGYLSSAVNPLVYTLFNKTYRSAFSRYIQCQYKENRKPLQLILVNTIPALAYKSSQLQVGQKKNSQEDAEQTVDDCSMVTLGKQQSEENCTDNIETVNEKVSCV

[4] = molecular target: T3, 5-hydroxytryptamine receptor 2A; assay: Ability to displace [3H]ketanserin from rat cortical homogenate 5-hydroxytryptamine 2A receptor
[5] = molecular target: T4, 5-hydroxytryptamine receptor 2B (Homo sapiens, UniProt P41595); assay: Agonist activity at cloned human 5-hydroxytryptamine 2B receptor using [3H]5-HT radioligand; format: binding
T4 sequence (P41595 whole entry): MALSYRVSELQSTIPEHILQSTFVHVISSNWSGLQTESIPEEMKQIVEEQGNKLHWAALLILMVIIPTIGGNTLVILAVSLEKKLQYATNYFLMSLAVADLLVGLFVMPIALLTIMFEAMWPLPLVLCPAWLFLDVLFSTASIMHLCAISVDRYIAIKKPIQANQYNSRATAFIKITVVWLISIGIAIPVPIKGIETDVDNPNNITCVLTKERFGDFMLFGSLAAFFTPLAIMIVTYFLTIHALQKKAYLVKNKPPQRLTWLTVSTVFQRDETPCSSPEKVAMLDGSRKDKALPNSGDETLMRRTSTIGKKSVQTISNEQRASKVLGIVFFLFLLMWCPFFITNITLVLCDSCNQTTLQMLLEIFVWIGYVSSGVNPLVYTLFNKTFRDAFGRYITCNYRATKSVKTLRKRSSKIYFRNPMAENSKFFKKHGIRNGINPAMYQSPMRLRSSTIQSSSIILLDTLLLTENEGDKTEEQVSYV

[6] = molecular target: T5, 5-hydroxytryptamine receptor 2C (Rattus norvegicus, UniProt P08909); assay: Effect on phosphoinositide hydrolysis in NIH 3T3 fibroblast 5-hydroxytryptamine 2C receptor; format: functional
T5 sequence (P08909 whole entry): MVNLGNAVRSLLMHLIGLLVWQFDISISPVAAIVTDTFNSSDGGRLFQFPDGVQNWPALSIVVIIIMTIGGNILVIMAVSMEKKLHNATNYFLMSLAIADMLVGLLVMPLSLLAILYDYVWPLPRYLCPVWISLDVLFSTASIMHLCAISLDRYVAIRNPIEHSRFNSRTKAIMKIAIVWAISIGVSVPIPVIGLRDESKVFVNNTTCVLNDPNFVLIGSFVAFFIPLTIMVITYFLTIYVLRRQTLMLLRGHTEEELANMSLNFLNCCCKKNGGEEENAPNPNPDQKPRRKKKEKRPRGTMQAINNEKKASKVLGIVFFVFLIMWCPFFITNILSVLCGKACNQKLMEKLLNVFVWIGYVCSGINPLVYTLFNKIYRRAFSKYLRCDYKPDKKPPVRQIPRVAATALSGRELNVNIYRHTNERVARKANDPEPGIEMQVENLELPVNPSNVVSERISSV

[7] = molecular target: T6, 5-hydroxytryptamine receptor 2C (Homo sapiens, UniProt P28335); assay: Agonist activity at cloned human 5-hydroxytryptamine 2C receptor using [125I]DOI radioligand; format: binding
T6 sequence (P28335 whole entry): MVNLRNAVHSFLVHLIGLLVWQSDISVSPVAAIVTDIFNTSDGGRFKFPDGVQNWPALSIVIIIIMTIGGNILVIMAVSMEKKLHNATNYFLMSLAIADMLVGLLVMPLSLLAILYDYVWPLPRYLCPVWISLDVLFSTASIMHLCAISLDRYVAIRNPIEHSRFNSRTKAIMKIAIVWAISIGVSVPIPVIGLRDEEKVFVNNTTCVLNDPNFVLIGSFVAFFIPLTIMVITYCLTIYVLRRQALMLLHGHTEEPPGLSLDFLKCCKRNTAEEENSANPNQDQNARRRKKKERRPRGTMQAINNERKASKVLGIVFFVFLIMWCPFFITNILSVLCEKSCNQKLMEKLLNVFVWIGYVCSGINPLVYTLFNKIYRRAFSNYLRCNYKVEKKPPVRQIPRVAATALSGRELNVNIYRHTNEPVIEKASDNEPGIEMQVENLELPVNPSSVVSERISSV

[8] = Partition coefficient (logP); format: physicochemical; details: octanol/water
[9] = species on record: Rattus norvegicus; assay: Effective dose showing 50% Drug Discrimination in LSD trained rats (number of animals tested = 8-12); format: functional
[10] = species on record: Rattus norvegicus; assay: Ability to inhibit accumulation [3H]5-HT in rat whole brain synaptosomes; format: functional
[11] = species on record: Rattus norvegicus; assay: Ability to inhibit accumulation [3H]DA in rat whole brain synaptosomes; format: functional
[12] = molecular target: T2, 5-hydroxytryptamine receptor 2A; assay: Antagonist activity at cloned human 5-hydroxytryptamine 2A receptor using [3H]-Ketanserin radioligand
[13] = molecular target: T4, 5-hydroxytryptamine receptor 2B; assay: Antagonist activity at cloned human 5-hydroxytryptamine 2B receptor using [3H]- rauwolscine radioligand
[14] = molecular target: T6, 5-hydroxytryptamine receptor 2C; assay: Antagonist activity at cloned human 5-hydroxytryptamine 2C receptor using [3H]mesulergine radioligand
[15] = species on record: Rattus norvegicus; assay: Effective dose showing 29% Drug Discrimination in LSD trained rats (number of animals tested = 8-12); format: functional
[16] = molecular target: T3, 5-hydroxytryptamine receptor 2A; assay: Effect on phosphoinositide hydrolysis in NIH 3T3 fibroblast expressing 5-hydroxytryptamine 2A receptor; format: functional
[17] = molecular target: T4, 5-hydroxytryptamine receptor 2B; assay: Antagonist activity at cloned human 5-hydroxytryptamine 2B receptor using [3H]rauwolscine radioligand

Compound: COc1cc(CCN)cc(OC)c1OC [MESCALINE]
- Ki [1]: 6900 nM
- Ki [2]: 551 nM
- EC50 [3]: 4000 nM
- Ki [4]: 5500 nM
- Ki [5]: 795 nM
- EC50 [6]: 24000 nM
- Ki [7]: 303 nM
- logP [8]: 3.15
- ED50 [9]: 33.5 µmol/kg
- IC50 [10]: > 10000 nM
- IC50 [11]: > 10000 nM

Compound: COc1c2c(c(CCN)c3c1OCC3)CCO2
- Ki [2]: 335 nM
- Ki [12]: 4440 nM
- EC50 [3]: 2000 nM
- Ki [5]: 301 nM
- Ki [13]: 205 nM
- EC50 [6]: 1000 nM
- Ki [7]: 61.5 nM
- Ki [14]: 654 nM
- ED50 [15]: 55.2 µmol/kg
- IC50 [10]: > 10000 nM
- IC50 [11]: > 10000 nM

Compound: COc1cc(CCN)c2c(c1OC)OCC2
- Ki [1]: 6200 nM
- EC50 [16]: 3000 nM
- Ki [4]: 2500 nM
- Ki [5]: 523 nM
- Ki [17]: 311 nM
- EC50 [6]: 2000 nM
- Ki [7]: 118 nM
- Ki [14]: 1100 nM
- ED50 [15]: 57.8 µmol/kg
- IC50 [10]: > 10000 nM
- IC50 [11]: > 10000 nM

Compound: CCOc1c(OC)cc(CCN)cc1OC
- Ki [1]: 6900 nM
- Ki [2]: 216 nM
- EC50 [3]: 4000 nM
- Ki [4]: 2100 nM
- Ki [5]: 555 nM
- EC50 [6]: 2000 nM
- Ki [7]: 177 nM
- ED50 [9]: 16.2 µmol/kg
- IC50 [10]: > 10000 nM
- IC50 [11]: > 10000 nM
